Measurements taken from ChEMBL document CHEMBL1146116, “N-thiolated 2-oxazolidinones: a new family of antibacterial agents for methicillin-resistant Staphylococcus aureus and Bacillus anthracis” (2006).
Converted amounts (≈) assume the structure as drawn.

Columns and labels:
Type in all cases: functional
Staphylococcus aureus [1] = assay: Antibacterial activity against Staphylococcus aureus 849 ATCC 25923 by agar disk diffusion method
Staphylococcus aureus [2] = assay: Antibacterial activity against methicillin-resistant Staphylococcus aureus USF653 by agar disk diffusion method
Staphylococcus aureus [3] = assay: Antibacterial activity against methicillin-resistant Staphylococcus aureus USF654 by agar disk diffusion method
Staphylococcus aureus [4] = assay: Antibacterial activity against methicillin-resistant Staphylococcus aureus USF655 by agar disk diffusion method
Staphylococcus aureus [5] = assay: Antibacterial activity against methicillin-resistant Staphylococcus aureus USF656 by agar disk diffusion method
Staphylococcus aureus [6] = assay: Antibacterial activity against methicillin-resistant Staphylococcus aureus USF657 by agar disk diffusion method
Staphylococcus aureus [7] = assay: Antibacterial activity against methicillin-resistant Staphylococcus aureus USF658 by agar disk diffusion method
Staphylococcus aureus [8] = assay: Antibacterial activity against methicillin-resistant Staphylococcus aureus USF659 by agar disk diffusion method
Staphylococcus aureus [9] = assay: Antibacterial activity against methicillin-resistant Staphylococcus aureus USF652 by agar disk diffusion method
Staphylococcus aureus [10] = assay: Antibacterial activity against methicillin-resistant Staphylococcus aureus USF919 ATCC 43300 by agar disk diffusion method
Staphylococcus aureus [11] = assay: Antibacterial activity against methicillin-resistant Staphylococcus aureus USF920 ATCC 33591 by agar disk diffusion method
Heyndrickxia coagulans = assay: Antibacterial activity against Bacillus coagulans by agar disk diffusion method
Bacillus subtilis [12] = assay: Antibacterial activity against Bacillus globigii by agar disk diffusion method
Bacillus thuringiensis = assay: Antibacterial activity against Bacillus thuringiensis by agar disk diffusion method
Priestia megaterium = assay: Antibacterial activity against Bacillus megaterium by agar disk diffusion method
Bacillus subtilis [13] = assay: Antibacterial activity against Bacillus subtilis by agar disk diffusion method
Bacillus cereus = assay: Antibacterial activity against Bacillus cereus by agar disk diffusion method
Staphylococcus aureus [14] = assay: Antibacterial activity against methicillin-resistant Staphylococcus aureus
Staphylococcus aureus [15] = assay: Antibacterial activity against Staphylococcus aureus

Row | Compound | inhibition zone (IZ) (Staphylococcus aureus [1]) [mm] | inhibition zone (IZ) (Staphylococcus aureus [2]) [mm] | inhibition zone (IZ) (Staphylococcus aureus [3]) [mm] | inhibition zone (IZ) (Staphylococcus aureus [4]) [mm] | inhibition zone (IZ) (Staphylococcus aureus [5]) [mm] | inhibition zone (IZ) (Staphylococcus aureus [6]) [mm] | inhibition zone (IZ) (Staphylococcus aureus [7]) [mm] | inhibition zone (IZ) (Staphylococcus aureus [8]) [mm] | inhibition zone (IZ) (Staphylococcus aureus [9]) [mm] | inhibition zone (IZ) (Staphylococcus aureus [10]) [mm] | inhibition zone (IZ) (Staphylococcus aureus [11]) [mm] | inhibition zone (IZ) (Heyndrickxia coagulans) [mm] | inhibition zone (IZ) (Bacillus subtilis [12]) [mm] | inhibition zone (IZ) (Bacillus thuringiensis) [mm] | inhibition zone (IZ) (Priestia megaterium) [mm] | inhibition zone (IZ) (Bacillus subtilis [13]) [mm] | inhibition zone (IZ) (Bacillus cereus) [mm] | MIC (Staphylococcus aureus [14]) [µg/mL] | MIC (Staphylococcus aureus [15]) [µg/mL]
1 | CO[C@H]1C(=O)N(SC)[C@H]1c1ccccc1 | 25 | 30 | 26 | 25 | 28 | 27 | 26 | 24 | 30 | – | – | – | – | – | – | – | – | – | –
2 | CSN1CC(CCl)OC1=O (stereo not given) | 21 | 20 | 20 | 20 | 22 | 21 | 18 | 19 | 16 | 20 | 16 | – | – | – | – | – | – | – | –
3 | CSN1C(=O)OC[C@H]1C(C)C | 21 | 25 | 20 | 18 | 20 | 19 | 19 | 22 | 12 | 13 | 15 | 0 | 17 | 0 | 10 | 19 | 15 | – | –
4 | CSN1C(=O)OC[C@@H]1c1ccccc1 | 30 | 31 | 29 | 29 | 31 | 29 | 29 | 26 | 30 | 30 | 28 | 17 | 15 | 17 | 18 | 19 | 24 | – | –
5 | CSN1C(=O)OC[C@H]1c1ccccc1 | 29 | 30 | 26 | 28 | 28 | 27 | 27 | 26 | 30 | 28 | 28 | 17 | 17 | 15 | 20 | 19 | 23 | 8 (≈ 38.2 µM) | 8 (≈ 38.2 µM)
6 | CSN1C(=O)O[C@@H](CN=[N+]=[N-])[C@@H]1c1ccccc1 | 31 | 32 | 30 | 30 | 31 | 30 | 31 | 28 | 30 | 32 | 32 | – | – | – | – | – | – | – | –
7 | CSN1C(=O)OC[C@@H]1C(C)C | 20 | 27 | 23 | 22 | 22 | 22 | 16 | 22 | 19 | 21 | 18 | 17 | 15 | 16 | 18 | 17 | 22 | 16 (≈ 91.3 µM) | 16 (≈ 91.3 µM)
8 | COC(=O)[C@@H]1OC(=O)N(SC)[C@H]1c1ccccc1 | 16 | 19 | 14 | 14 | 15 | 12 | 14 | 16 | 12 | 11 | 0 | – | – | – | – | – | – | – | –
9 | CSN1C(=O)OCC1Cc1ccccc1 (stereo not given) | 17 | 20 | 18 | 17 | 19 | 19 | 17 | 19 | 17 | 19 | 19 | – | – | – | – | – | – | – | –
10 | CCC(C)SN1CC(CCl)OC1=O (stereo not given) | 19 | 20 | 22 | 22 | 20 | 22 | 21 | 20 | 19 | 19 | 19 | – | – | – | – | – | – | – | –
11 | CC1(C)S[C@@H]2[C@H](NC(=O)Cc3ccccc3)C(=O)N2[C@H]1C(=O)O [PENICILLIN G] | 33 | 15 | 10 | 14 | 12 | 12 | 19 | 16 | 8 | – | – | – | – | – | – | – | – | – | –
